The numbers were not newly measured in US20240065969A1, “OPHTHALMIC TOPICAL CREAM FORMULATIONS AND USES THEREOF” (Glaukos Corporation, priority 2022, published 2024), which cites them from elsewhere.

Molecules are shown by their SMILES.

By pKa is commonly meant the negative logarithm of the acid dissociation constant. Regarding `CC[C@@H]1C(=O)OC[C@@H]1Cc1cncn1C` [pilocarpine], the pKa is recorded as around 6.5.
